The text below walks through data of ChEMBL document CHEMBL1146357, “Antidepressant-like profile of action of two 4-amine derivatives of 10,11-dihydro-5H-dibenzo [a,d] cycloheptane in mice evaluated in the forced swimming test” (2007).

Type in all cases: functional
Common to all, as to conditions: route intraperitoneal

Assay [1] relates to Mus musculus. Kind of assay: Antidepressant activity in Swiss mouse assessed as immobility time at 30 mg/kg/day, ip after 10 days by 5-mins swim test.
Assay [2] concerns Mus musculus. In words: Antidepressant activity in Swiss mouse assessed as immobility time at 30 mg/kg, ip thrice a day by 5-mins swim test.
Assay [3] concerns Mus musculus. In words: Antidepressant activity in Swiss mouse assessed as immobility time at 1 mg/kg, ip thrice a day by 5-mins swim test.
The test system of assay [4] is Mus musculus. Kind of assay: Antidepressant activity in Swiss mouse assessed as immobility time at 5 mg/kg, ip thrice a day by 5-mins swim test.
The test system of assay [5] is Mus musculus. Kind of assay: Antidepressant activity in Swiss mouse assessed as reduction in immobility time at 30 mg/kg/day, ip after 10 days by 5-mins swim test. Set-up: scale not given: the % may be the effect or the level left.
Assay [6] deals with Mus musculus. Kind of assay: Effect on motor co-ordination in Swiss mouse assessed as number of falls at 30 mg/kg, ip after 10 days by Rota-rod test. In general terms: Falling from the rotarod earlier than controls is read as motor impairment.
The test system of assay [7] is Mus musculus. Kind of assay: Antidepressant activity in Swiss mouse assessed as immobility time at 50 mg/kg, ip thrice a day by 5-mins swim test.
The test system of assay [8] is Mus musculus. Kind of assay: Effect on motor co-ordination in Swiss mouse assessed as time on rotating bar at 30 mg/kg, ip after 10 days by Rota-rod test.
For assay [9], the system named is Mus musculus. In words: Antidepressant activity in Swiss mouse assessed as immobility time at 15 mg/kg, ip thrice a day by 5-mins swim test.
Assay [10] has as its system Mus musculus. In words: Antidepressant activity in Swiss mouse assessed as reduction in immobility time at 50 mg/kg/day, ip after 10 days by 5-mins swim test. Set-up: scale not given: the % may be the effect or the level left.
The test system of assay [11] is Mus musculus. Kind of assay: Effect on motor co-ordination in Swiss mouse assessed as number of falls at 50 mg/kg, ip after 10 days by Rota-rod test.
In assay [12] the test system is Mus musculus. Kind of assay: Antidepressant activity in Swiss mouse assessed as immobility time at 100 mg/kg, ip thrice a day by 5-mins swim test.
The test system of assay [13] is Mus musculus. In words: Antidepressant activity in Swiss mouse assessed as immobility time at 50 mg/kg/day, ip after 10 days by 5-mins swim test.
Assay [14] concerns Mus musculus. In words: Effect on motor co-ordination in Swiss mouse assessed as time on rotating bar at 50 mg/kg, ip after 10 days by Rota-rod test.
The test system of assay [15] is Mus musculus. Kind of assay: Effect on motor co-ordination in Swiss mouse assessed as time on rotating bar at 15 mg/kg, ip after 10 days by Rota-rod test.
In assay [16] the test system is Mus musculus. In words: Effect on motor co-ordination in Swiss mouse assessed as number of falls at 15 mg/kg, ip after 10 days by Rota-rod test.

In the case of `c1ccc2c(c1)CCc1cccc3c1C2=NCCN3`, the Time was 186.4 s in the assay on Mus musculus [1]; 169.92 s in the assay on Mus musculus [2]; 215 s in the assay with Mus musculus [3]; 197 s in the assay on Mus musculus [4]; 199.25 s in the assay with Mus musculus [7]; 58.6 s with Mus musculus [8]. Further, the Time with Mus musculus [9] is recorded as 186.57 s. Also, the Activity is listed as 15% in the assay with Mus musculus [5] and 0.4 in the assay with Mus musculus [6].

On to `CN(C)CCCNc1cccc2c1C(=O)c1ccccc1CC2`, for which the Activity in the assay with Mus musculus [10] is recorded as 13%; in the assay with Mus musculus [11] it was 0.5. Also, the Time in the assay with Mus musculus [2] is reported as 169.31 s; with Mus musculus [4], 220.22 s; with Mus musculus [12], 206.38 s; in the assay on Mus musculus [13], 190.33 s; in the assay on Mus musculus [14] it was 59.5 s; in the assay on Mus musculus [7], 132 s. The Time in the assay with Mus musculus [9] was found to be 187.1 s.

Take `CN(C)CCCN1c2ccccc2CCc2ccccc21` [IMIPRAMINE]: the Time was determined as 58.11 s in the assay on Mus musculus [15] and 137.33 s with Mus musculus [9]. The Activity in the assay on Mus musculus [16] stood at 0.83.
